Experimental data reported in patent US5302610A, “Renal-selective biphenylmethyl imidazole angiotensin II antagonists for treatment of hypertension” (G. D. Searle & Co., priority 1991, dated 1994).

Legend:
[1] = system: response to angiotensin II (mean arterial pressure); assay: Assay E: Mean Arterial Pressure, acute administration with AII infusion; format: in vivo, male Sprague-Dawley rats, conscious; conditions: for Mean Arterial Pressure: n = 6, means±SE
Description: (§1) antagonist compound (Ex. #5) and a glutamyl conjugate (Ex. #81) of the Ex. #5 AII antagonist compound to determine the renal selectivity of the conjugate. Male Sprague-Dawley rats (300-350 g body weight) had catheters implanted into the femoral artery and vein under chloral hydrate anesthesia (400 mg/kg, i.p.). After 2 to 4 days of recovery, on the experimental day, a urinary bladder catheter was implanted under methohexital anesthesia (50 mg/kg, i.p.). Rats were placed in a restraint device to allow for urine collection and mean arterial pressure measurements. After 1-2 hours of recovery, in conscious rats, an isotonic saline infusion (50 μl/min) was started and continued for the duration of the experiment. After one hour equilibration to the saline infusion, a 20 minute control urine and mean arterial pressure collection were obtained. Then angiotensin II was infused at 20 ng/min for 25 minutes. After 5 minutes of angiotensin II infusion, a 20 minute experimental collection was made. Finally, 5 minutes after the end of angiotensin II infusion, a 20 minute recovery collection was obtained. In separate groups of rats, vehicle (0.3 ml isotonic saline, i.v. bolus), Example #5 angiotensin II antagonist compound (100 mg/kg, i.v. bolus), or Example #81 conjugate (100 mg/kg, i.v. bolus) was administered 1-2 minutes prior to onset of angiotensin II infusion. […] Results are shown in Tables XIII and XIV and also in FIGS. 3 and 4. Data are presented as means±SE. Repeated measures analysis of variance was used for main effects and interactions and Tukey's HSD test was used for pairwise comparisons among means. Statistical significance was defined as p<0.05.

[2] = system: response to angiotensin II (urinary sodium excretion); assay: Assay E: Urinary Sodium Excretion, acute administration with AII infusion; format: in vivo, male Sprague-Dawley rats, conscious; conditions: for Urinary Sodium Excretion: means±SE
Description: as §1

[3] = system: vascular smooth muscle, AII response (rabbit aortic rings); assay: Assay B: In Vitro Vascular Smooth Muscle Response for AII (rabbit aortic rings); format: cell-based, rabbit (male New Zealand white); conditions: Oryctolagus cuniculus, 5 min, antagonist 10^-5 M, three rabbits, read-out: Assay B PA2 (converted)
Description: Compound of Example #5 was tested for AII antagonist activity in rabbit aortic rings. Male New Zealand white rabbits (2-2.5 kg) were sacrificed using an overdose of pentobarbital and exsanguinated via the carotid arteries. The thoracic aorta was removed, cleaned of adherent fat and connective tissue and then cut into 3-mm ring segments. The endothelium was removed from the rings by gently sliding a rolled-up piece of filter paper into the vessel lumen. The rings were then mounted in a water-jacketed tissue bath, maintained at 37° C., between moveable and fixed ends of a stainless steel wire with the moveable end attached to an FT03 Grass transducer coupled to a Model 7D Grass Polygraph for recording isometric force responses. The bath was filled with 20 ml of oxygenated (95% oxygen/5% carbon dioxide) Krebs solution of the following composition […]: 130 NaCl, 15 NaHCO3, 15 KCl, 1.2 NaH2 PO4, 1.2 MgSO4, 2.5 CaCl2, and 11.4 glucose. The preparations were equilibrated for one hour before approximately one gram of passive tension was placed on the rings. Angiotensin II concentration-response curves were then recorded (3×10^-10 to 1×10^-5 M). […] The effectiveness of the test compound was expressed in terms of pA2 values and were calculated according to H. O. Schild [Br. J. Pharmacol. Chemother., 189-206 (1947)]. […] The test compound was evaluated in aorta rings from three rabbits.

[4] = 100 mg/kg i.v. bolus, Recovery after AII infusion
[5] = 100 mg/kg i.v. bolus, during AII infusion 20 ng/min, * in table
[6] = 100 mg/kg, i.v. bolus, AII 20 ng/min

Structure (SMILES): CCCCc1nc(Cl)c(CO)n1Cc1ccc(-c2ccccc2C(=O)O)cc1 [Example 5]
- Mean Arterial Pressure [1, 4]: 124 ± 7 mm Hg
- Mean Arterial Pressure [1, 5]: 125 ± 7 mm Hg
- mean arterial pressure response to angiotensin II [1, 6]: prevented both responses to angiotensin II
- Mean Arterial Pressure ([1]; Control period (before dosing)): 123 ± 5 mm Hg
- Urinary Sodium Excretion [2, 4]: 2.6 ± 0.7 μEq/min/100 g BW
- Urinary Sodium Excretion [2, 5]: 2.5 ± 1.1 μEq/min/100 g BW
- antinatriuretic (urinary sodium excretion) response to angiotensin II [2, 6]: prevented both responses to angiotensin II
- Urinary Sodium Excretion ([2]; Control period (before dosing)): 2.4 ± 0.5 μEq/min/100 g BW
- Kb [3]: 74.1 nM
